From US10433556B2, “Treatment and/or prophylaxis of storage diseases of harvested material” (priority 2011, dated 2019)

Assays:
[1] = test system: fish; details: in vivo; cited from earlier work
[2] = test system: Helminthosporium solani; assay: Field trial 2010/2011 Netherlands: rate of germination of the spores on the potato tuber; type: in vivo; details: use of Imazalil; FIG. 3 fourth column
Method: (§1) For the treatment of the seed potato at or before the laying into the ground soil Proradix is used as a liquid mordant [Proradix WG (LF 4816-00); Sourcon […] GmbH & Co. KG, Tübingen, Germany], according to the information of the manufacturer in a concentration of 60 g/ha via the spraying method by using a ULV spraying device. Before the storage of the potatoes 20 g of Proradix WG is dissolved in a maximum of 2 l of water per barrel. The application onto the potatoes is also effected by means of a ULV spraying device. The laying of the potato and, if applicable, the treatment with Proradix and/or Imazalil is carried out in springtime and the harvest and storage and, if applicable, the treatment with Proradix and/or Imazalil is carried out in fall of the same year. In a further field trial conducted in the years of 2010/2011 in the Netherlands according to the EPPO guidelines the influence of Proradix in comparison to the chemical standard of Imazalil on the production of spores of the fungal pathogen of Helminthosporium solani, the initiator of the silver scurf, and the rate of germination of the spores on the potato tuber was examined.

[3] = test system: birds and ducks; details: in vivo; cited from earlier work
[4] = test system: silver scurf on potato tubers; assay: Field trial 2010/2011 Germany: Proradix in combination with Imazalil, affection by silver scurf after storage; type: in vivo, Helminthosporium solani; details: exclusively Imazalil at the laying and the storage; vs untreated potatoes; FIG. 5 third column
Method: For the treatment of the seed potato at or before the laying into the ground soil Proradix is used as a liquid mordant [Proradix WG (LF 4816-00); Sourcon […] GmbH & Co. KG, Tübingen, Germany], according to the information of the manufacturer in a concentration of 60 g/ha via the spraying method by using a ULV spraying device. Before the storage of the potatoes 20 g of Proradix WG is dissolved in a maximum of 2 l of water per barrel. The application onto the potatoes is also effected by means of a ULV spraying device. The laying of the potato and, if applicable, the treatment with Proradix and/or Imazalil is carried out in springtime and the harvest and storage and, if applicable, the treatment with Proradix and/or Imazalil is carried out in fall of the same year. In a field trial conducted in the years of 2010 and 2011 in Germany according to the EPPO guidelines it was examined in detail, whether Proradix can also be effectively used in combination with the chemical of Imazalil. For this purpose a part of the potatoes remain untreated, a part was treated with the chemical of Imazalil at the laying, and a part was treated at the laying and also before the storage with the chemical of Imazalil, and yet another part was treated at the laying with Imazalil and before the storage with Proradix.

[5] = test system: Helminthosporium solani; assay: Field trial 2010/2011 Netherlands: production of spores of the silver scurf pathogen on the potato tuber; type: in vivo; details: treatment of the potato before the storage; FIG. 2
Method: as §1

## C=CCOC(Cn1ccnc1)c1ccc(Cl)cc1Cl (centres unmarked) [Imazalil]
[1]
  toxicity for fish: toxic
[2]
  share of spores able to germinate: half
[3]
  effect on birds and ducks: causes damages
[4]
  affection by silver scurf after the storage: significantly diminished reduction
[5]
  formation of spores: comparable
